{"source": "PubChem BioAssay AID330", "about": "(DTP/NCI, 2004)", "system": "P388 leukemia ip, CD2F1 mice, survival T/C", "assay": "NCI In Vivo Anticancer Drug Screen. Data for tumor model P388 Leukemia (intraperitoneal) in CD2F1 (CDF1) mice", "settings": "endpoint: median survival time, higher = longer survival", "outline": "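Mice carrying the transplanted tumor received test compound or vehicle. Survival was recorded in each group, and the value is the treated-group measurement divided by that of the vehicle-treated control group.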", "note": "Toxic doses and inconclusive results are not listed.", "data": [{"smiles": "CNC=O", "values": [{"measurement": "T/C", "setting": "dose: 80.0 mg/kg/injection, schedule: Q01DX005 (ip), vehicle: water", "result": "108 % of control"}, {"measurement": "T/C", "setting": "dose: 160.0 mg/kg/injection, schedule: Q01DX005 (ip), vehicle: water", "result": "115 % of control"}, {"measurement": "T/C", "setting": "dose: 197.6 mg/kg/injection, schedule: Q01DX005 (ip), vehicle: saline", "result": "116 % of control"}, {"measurement": "T/C", "setting": "dose: 197.6 mg/kg/injection, schedule: Q01DX005 (iv), vehicle: saline", "result": "120 % of control"}, {"measurement": "T/C", "setting": "dose: 296.3 mg/kg/injection, schedule: Q01DX005 (ip), vehicle: water", "result": "107 % of control"}, {"measurement": "T/C", "setting": "dose: 296.5 mg/kg/injection, schedule: Q01DX001 (ip), vehicle: saline", "result": "101 % of control"}, {"measurement": "T/C", "setting": "dose: 296.5 mg/kg/injection, schedule: Q01DX001 (iv), vehicle: saline", "result": "100 % of control"}, {"measurement": "T/C", "setting": "dose: 320.0 mg/kg/injection, schedule: Q01DX005 (ip), vehicle: water", "result": "118 % of control"}, {"measurement": "T/C", "setting": "dose: 444.4 mg/kg/injection, schedule: Q01DX005 (ip), vehicle: water", "result": "122 % of control"}, {"measurement": "T/C", "setting": "dose: 444.5 mg/kg/injection, schedule: Q01DX001 (ip), vehicle: saline", "result": "104 % of control"}, {"measurement": "T/C", "setting": "dose: 444.5 mg/kg/injection, schedule: Q01DX001 (iv), vehicle: saline", "result": "103 % of control"}, {"measurement": "T/C", "setting": "dose: 444.5 mg/kg/injection, schedule: Q01DX001 (oral), vehicle: saline", "result": "103 % of control"}, {"measurement": "T/C", "setting": "dose: 444.5 mg/kg/injection, schedule: Q01DX009 (ip), vehicle: saline", "result": "98 % of control"}, {"measurement": "T/C", "setting": "dose: 444.5 mg/kg/injection, schedule: Q01DX009 (oral), vehicle: saline", "result": "173 % of control"}, {"measurement": "T/C", "setting": "dose: 666.7 mg/kg/injection, schedule: Q01DX001 (ip), vehicle: saline", "result": "107 % of control"}, {"measurement": "T/C", "setting": "dose: 666.7 mg/kg/injection, schedule: Q01DX001 (iv), vehicle: saline", "result": "111 % of control"}, {"measurement": "T/C", "setting": "dose: 666.7 mg/kg/injection, schedule: Q01DX001 (oral), vehicle: saline", "result": "114 % of control"}, {"measurement": "T/C", "setting": "dose: 666.7 mg/kg/injection, schedule: Q01DX005 (ip), vehicle: saline", "result": "156 % of control"}, {"measurement": "T/C", "setting": "dose: 666.7 mg/kg/injection, schedule: Q01DX005 (ip), vehicle: water", "result": "166 % of control"}, {"measurement": "T/C", "setting": "dose: 666.7 mg/kg/injection, schedule: Q01DX009 (ip), vehicle: saline", "result": "93 % of control"}, {"measurement": "T/C", "setting": "dose: 666.7 mg/kg/injection, schedule: Q01DX009 (oral), vehicle: saline", "result": "98 % of control"}, {"measurement": "T/C", "setting": "dose: 1000.0 mg/kg/injection, schedule: Q01DX001 (ip), vehicle: saline", "result": "116 % of control"}, {"measurement": "T/C", "setting": "dose: 1000.0 mg/kg/injection, schedule: Q01DX001 (iv), vehicle: saline", "result": "119 % of control"}, {"measurement": "T/C", "setting": "dose: 1000.0 mg/kg/injection, schedule: Q01DX001 (oral), vehicle: saline", "result": "116 % of control"}, {"measurement": "T/C", "setting": "dose: 1000.0 mg/kg/injection, schedule: Q01DX005 (iv), vehicle: saline", "result": "86 % of control"}, {"measurement": "T/C", "setting": "dose: 1000.0 mg/kg/injection, schedule: Q01DX005 (oral), vehicle: saline", "result": "95 % of control"}, {"measurement": "T/C", "setting": "dose: 1000.0 mg/kg/injection, schedule: Q01DX009 (oral), vehicle: saline", "result": "98 % of control"}, {"measurement": "T/C", "setting": "dose: 1280.0 mg/kg/injection, schedule: Q01DX005 (ip), vehicle: water", "result": "161 % of control"}, {"measurement": "T/C", "setting": "dose: 1500.0 mg/kg/injection, schedule: Q01DX001 (ip), vehicle: saline", "result": "120 % of control"}, {"measurement": "T/C", "setting": "dose: 1500.0 mg/kg/injection, schedule: Q01DX005 (oral), vehicle: saline", "result": "86 % of control"}]}, {"smiles": "CN1CCCC(Cl)(C(=O)c2ccccc2)C1", "note": "(stereo not given)", "values": [{"measurement": "T/C", "setting": "dose: 100.0 mg/kg/injection, schedule: Q04DX003 (ip), vehicle: saline", "result": "106 % of control"}, {"measurement": "T/C", "setting": "dose: 200.0 mg/kg/injection, schedule: Q04DX003 (ip), vehicle: saline", "result": "100 % of control"}]}, {"smiles": "COc1ccc2nc(-c3ccccn3)ccc2c1", "values": [{"measurement": "T/C", "setting": "dose: 25.0 mg/kg/injection, schedule: Q01DX009 (ip), vehicle: distilled water + Tween-80", "result": "106 % of control"}, {"measurement": "T/C", "setting": "dose: 50.0 mg/kg/injection, schedule: Q01DX009 (ip), vehicle: distilled water + Tween-80", "result": "106 % of control"}, {"measurement": "T/C", "setting": "dose: 100.0 mg/kg/injection, schedule: Q01DX009 (ip), vehicle: distilled water + Tween-80", "result": "101 % of control"}, {"measurement": "T/C", "setting": "dose: 200.0 mg/kg/injection, schedule: Q01DX009 (ip), vehicle: distilled water + Tween-80", "result": "93 % of control"}, {"measurement": "T/C", "setting": "dose: 400.0 mg/kg/injection, schedule: Q01DX009 (ip), vehicle: distilled water + Tween-80", "result": "92 % of control"}]}, {"smiles": "Oc1cccnc1[Se]", "values": [{"measurement": "T/C", "setting": "dose: 60.0 mg/kg/injection, schedule: Q01DX005 (ip), vehicle: Klucel (hydroxypropylcellulose) (HPC)", "result": "112 % of control"}, {"measurement": "T/C", "setting": "dose: 120.0 mg/kg/injection, schedule: Q01DX005 (ip), vehicle: Klucel (hydroxypropylcellulose) (HPC)", "result": "106 % of control"}, {"measurement": "T/C", "setting": "dose: 240.0 mg/kg/injection, schedule: Q01DX005 (ip), vehicle: Klucel (hydroxypropylcellulose) (HPC)", "result": "110 % of control"}]}]}
